Results as given in patent publication EP4603105A1, “PHARMACEUTICAL COMPOSITION CONTAINING CYCLIC COMPOUND HAVING SELECTIVE KRAS INHIBITORY EFFECT AGAINST HRAS AND NRAS” (CHUGAI SEIYAKU KABUSHIKI KAISHA, priority 2022, dated 2024).
*1 amine or outer side, *2 acyl side, *3 side chain or, on linkers, in order; H or OH if unused. Where a SMILES comes first, the peptide text is derived from it. Bridges are numbered along the chain shown (N, C = ends). [ ]: non-standard residue; d: D form. The star is where a group is joined. hPhe(3-Cl-4-CF3) = N[C@@H](CCc1ccc(C(F)(F)F)c(Cl)c1)C(=O)O; NPrPhe(4-CF3) = CCCN[C@@H](Cc1ccc(C(F)(F)F)cc1)C(=O)O; NPrAsp = CCCN([C@@H](CC(=O)[*:3])C(=O)[*:2])[*:1]; NEtAsp = CCN([C@@H](CC(=O)[*:3])C(=O)[*:2])[*:1]; X30 = CCN([C@H](C(=O)[*:2])C1CCCC1)[*:1]; NMeGly(cPent) = CN[C@H](C(=O)O)C1CCCC1; NEtLeu = CCN[C@@H](CC(C)C)C(=O)O; NMeD = CN[C@@H](CC(=O)O)C(=O)O; NMeL = CN[C@@H](CC(C)C)C(=O)O; NMeNva = CCC[C@H](NC)C(=O)O; Morpholide = C1CN(*)CCO1; NMeA = CN[C@@H](C)C(=O)O; Aze = O=C(O)[C@@H]1CCN1; Ac4c = NC1(C(=O)O)CCC1; NPrGly = CCCNCC(=O)O; NEtG = CCNCC(=O)O; Sar = CNCC(=O)O

How the values were obtained:
[1] = target: GDP-bound NRAS wild-type protein (Homo sapiens, UniProt P01111); experiment: Binding to NRAS by surface plasmon resonance (SPR), KD and KD ratio to KRAS; details: ratio of the KD value with respect to GDP-bound NRAS wild-type protein to the KD value with respect to KRAS
Outline: (§1)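 Compound binding is evaluated by SPR single-cycle kinetics, with concentrations added intermittently from low to high for 75 s each. Target surfaces carry GDP-loaded biotinylated Avi-RAS at about 100–300 RU, regenerated after each cycle; temperature 30°C. A 1:1 binding model gives KD.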

[2] = tested on: human lung cancer strain NCI-H441; type: cell-based
Outline: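 Proliferation was scored by […] measured after the reagent was added to cultures kept at 37°C in 5% carbon dioxide.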

HRAS wild-type protein = HRAS wild-type protein (Homo sapiens, UniProt P01112); experiment: Binding to HRAS by surface plasmon resonance (SPR), KD and KD ratio to KRAS; details: ratio of the KD value with respect to HRAS wild-type protein to the KD value with respect to KRAS
Outline: as §1

Chain of HRAS wild-type protein (P01112 whole entry): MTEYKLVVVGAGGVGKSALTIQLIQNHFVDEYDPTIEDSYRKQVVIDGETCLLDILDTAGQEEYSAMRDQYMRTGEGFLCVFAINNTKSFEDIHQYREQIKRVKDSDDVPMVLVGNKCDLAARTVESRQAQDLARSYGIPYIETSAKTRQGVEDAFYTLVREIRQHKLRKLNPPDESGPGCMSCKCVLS
Chain of GDP-bound NRAS wild-type protein (P01111 whole entry): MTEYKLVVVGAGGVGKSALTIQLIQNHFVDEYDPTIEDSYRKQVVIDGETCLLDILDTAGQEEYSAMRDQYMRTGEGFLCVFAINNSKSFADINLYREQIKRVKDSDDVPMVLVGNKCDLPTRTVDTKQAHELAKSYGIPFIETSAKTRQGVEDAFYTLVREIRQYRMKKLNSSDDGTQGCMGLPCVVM

SMILES	NRAS /KRAS [1]	IC50 [2] [nM]	HRAS /KRAS (HRAS wild-type protein)
CCC[C@H]1C(=O)N[C@@H]([C@@H](C)CC)C(=O)N(C)CC(=O)N(C)[C@H]2C/C=C\CCN(C2=O)[C@@H](Cc2ccc(C(F)(F)F)cc2)C(=O)N(C)CC(=O)N[C@@H](CCc2cc(F)c(C(F)(F)F)c(F)c2)C(=O)N2C[C@H](OCC)C[C@H]2C(=O)NC2(CC(C)(C)C2)C(=O)N(C)[C@@H]([C@@H](C)CC)C(=O)N(C)[C@H](C(=O)N(C)C)CC(=O)N1C [PP1941]	A (a compound having 10 or more and less than 20 is denoted as A)	9.2	A (a compound having 10 or more and less than 20 is denoted as A)
CCO[C@@H]1C[C@H]2C(=O)NC3(CC(C)(C)C3)C(=O)N(C)[C@@H](C3CCCCC3)C(=O)N(C)[C@H](C(=O)N(C)C)CC(=O)N(C)[C@@H](CC)C(=O)N[C@@H]([C@@H](C)CC)C(=O)N(C)CC(=O)N(C)[C@H]3C/C=C\CCN(C3=O)[C@@H](Cc3ccc(C(F)(F)F)cc3)C(=O)N(C)CC(=O)N[C@@H](CCc3cc(F)c(C(F)(F)F)c(F)c3)C(=O)N2C1 [PP1942]	AA (a compound having 20 or more is denoted as AA)	25.7	A (a compound having 10 or more and less than 20 is denoted as A)
CCC[C@H]1C(=O)N[C@@H]([C@@H](C)CC)C(=O)N(C)CC(=O)N(C)[C@H]2C/C=C\CCN(C2=O)[C@@H](Cc2ccc(C(F)(F)F)cc2)C(=O)N(C)CC(=O)N[C@@H](CCc2cc(F)c(C(F)(F)F)c(F)c2)C(=O)N2C[C@H](OCC)C[C@H]2C(=O)NC2(CC(C)(C)C2)C(=O)N(C)[C@@H](C2CCCC2)C(=O)N(C)[C@H](C(=O)N2CCC2)CC(=O)N1C [PP1943]	A (a compound having 10 or more and less than 20 is denoted as A)	9.2	B (a compound having 3 or more and less than 10 is denoted as B)
CCO[C@@H]1C[C@H]2C(=O)NC3(CC(C)(C)C3)C(=O)N(C)[C@@H](C3CCCC3)C(=O)N(C)[C@H](C(=O)N3CCCC3)CC(=O)N(C)[C@@H](CC)C(=O)N[C@@H]([C@@H](C)CC)C(=O)N(C)CC(=O)N(C)[C@H]3C/C=C\CCN(C3=O)[C@@H](Cc3ccc(C(F)(F)F)cc3)C(=O)N(C)CC(=O)N[C@@H](CCc3cc(F)c(C(F)(F)F)c(F)c3)C(=O)N2C1 [PP1944]	A (a compound having 10 or more and less than 20 is denoted as A)	14.8	A (a compound having 10 or more and less than 20 is denoted as A)
CCO[C@@H]1C[C@H]2C(=O)NC3(CC(C)(C)C3)C(=O)N(C)[C@@H](C3CCCC3)C(=O)N(C)[C@H](C(=O)N3CCCCC3)CC(=O)N(C)[C@@H](CC)C(=O)N[C@@H]([C@@H](C)CC)C(=O)N(C)CC(=O)N(C)[C@H]3C/C=C\CCN(C3=O)[C@@H](Cc3ccc(C(F)(F)F)cc3)C(=O)N(C)CC(=O)N[C@@H](CCc3cc(F)c(C(F)(F)F)c(F)c3)C(=O)N2C1 [PP1945]	AA (a compound having 20 or more is denoted as AA)	33.8	A (a compound having 10 or more and less than 20 is denoted as A)
CCCN1C(=O)CN(C)C(=O)CN(C)C(=O)[C@H]([C@@H](C)CC)NC(=O)[C@H](CC(C)C)N(CC)C(=O)C[C@@H](C(=O)N2CCOCC2)N(C)C(=O)[C@H](C2CCCC2)N(C)C(=O)C2(CCC2)NC(=O)[C@@H]2CCCN2C(=O)[C@H](CCc2ccc(C(F)(F)F)c(Cl)c2)NC(=O)CN(C)C(=O)[C@@H]1Cc1ccc(C(F)(F)F)cc1 [PP1946] ([NEtLeu]I[Sar][Sar][NPrPhe(4-CF3)][Sar][hPhe(3-Cl-4-CF3)]P[Ac4c][NMeGly(cPent)][NMeD]-Morpholide; lactam N-11)	B (a compound having 3 or more and less than 10 is denoted as B)	15.2	C (A compound having a KD ratio of 0.1 or more and less than 3 is denoted as C)
CCC[C@H]1C(=O)N[C@@H]([C@@H](C)CC)C(=O)N(CCC)CC(=O)N(C)CC(=O)N(CCC)[C@@H](Cc2ccc(C(F)(F)F)cc2)C(=O)N(C)CC(=O)N[C@@H](CCc2ccc(C(F)(F)F)c(Cl)c2)C(=O)N2CCC[C@H]2C(=O)NC2(CCC2)C(=O)N(C)[C@@H](C2CCCC2)C(=O)N(C)[C@H](C(=O)N2CCOCC2)CC(=O)N1C [PP1947] ([NMeNva]I[NPrGly][Sar][NPrPhe(4-CF3)][Sar][hPhe(3-Cl-4-CF3)]P[Ac4c][NMeGly(cPent)][NMeD]-Morpholide; lactam N-11)	B (a compound having 3 or more and less than 10 is denoted as B)	22	B (a compound having 3 or more and less than 10 is denoted as B)
CCCN1C(=O)CN(C)C(=O)CN(C)C(=O)[C@H]([C@@H](C)CC)NC(=O)[C@H](CC(C)C)N(C)C(=O)C[C@@H](C(=O)N2CCOCC2)N(C)C(=O)[C@H](C2CCCC2)N(C)C(=O)C2(CCC2)NC(=O)[C@@H]2CCCN2C(=O)[C@H](CCc2ccc(C(F)(F)F)c(Cl)c2)NC(=O)CN(CC)C(=O)[C@@H]1Cc1ccc(C(F)(F)F)cc1 [PP1950] ([NMeL]I[Sar][Sar][NPrPhe(4-CF3)][NEtG][hPhe(3-Cl-4-CF3)]P[Ac4c][NMeGly(cPent)][NMeD]-Morpholide; lactam N-11)	B (a compound having 3 or more and less than 10 is denoted as B)	32.5	C (A compound having a KD ratio of 0.1 or more and less than 3 is denoted as C)
CCCN1C(=O)CN(C)C(=O)CN(C)C(=O)[C@H]([C@@H](C)CC)NC(=O)[C@H](CC(C)C)N(C)C(=O)C[C@@H](C(=O)N2CCOCC2)N(C)C(=O)[C@H](C2CCCC2)N(CC)C(=O)C2(CCC2)NC(=O)[C@@H]2CCCN2C(=O)[C@H](CCc2ccc(C(F)(F)F)c(Cl)c2)NC(=O)CN(C)C(=O)[C@@H]1Cc1ccc(C(F)(F)F)cc1 [PP1952] ([NMeL]I[Sar][Sar][NPrPhe(4-CF3)][Sar][hPhe(3-Cl-4-CF3)]P[Ac4c][X30][NMeD]-Morpholide; lactam N-11)	B (a compound having 3 or more and less than 10 is denoted as B)	14	B (a compound having 3 or more and less than 10 is denoted as B)
CCCN1C(=O)CN(C)C(=O)CN(C)C(=O)[C@H]([C@@H](C)CC)NC(=O)[C@H](CC(C)C)N(C)C(=O)C[C@@H](C(=O)N2CCOCC2)N(CC)C(=O)[C@H](C2CCCC2)N(C)C(=O)C2(CCC2)NC(=O)[C@@H]2CCCN2C(=O)[C@H](CCc2ccc(C(F)(F)F)c(Cl)c2)NC(=O)CN(C)C(=O)[C@@H]1Cc1ccc(C(F)(F)F)cc1 [PP1953] ([NMeL]I[Sar][Sar][NPrPhe(4-CF3)][Sar][hPhe(3-Cl-4-CF3)]P[Ac4c][NMeGly(cPent)][NEtAsp]-Morpholide; lactam N-11)	B (a compound having 3 or more and less than 10 is denoted as B)	8.7	B (a compound having 3 or more and less than 10 is denoted as B)
CCC[C@H]1C(=O)N[C@@H]([C@@H](C)CC)C(=O)N(C)CC(=O)N(C)CC(=O)N(CCC)[C@@H](Cc2ccc(C(F)(F)F)cc2)C(=O)N(C)CC(=O)N[C@@H](CCc2ccc(C(F)(F)F)c(Cl)c2)C(=O)N2CCC[C@H]2C(=O)NC2(CCC2)C(=O)N(C)[C@@H](C2CCCC2)C(=O)N(CCC)[C@H](C(=O)N2CCOCC2)CC(=O)N1C [PP1954] ([NMeNva]I[Sar][Sar][NPrPhe(4-CF3)][Sar][hPhe(3-Cl-4-CF3)]P[Ac4c][NMeGly(cPent)][NPrAsp]-Morpholide; lactam N-11)	B (a compound having 3 or more and less than 10 is denoted as B)	8.1	B (a compound having 3 or more and less than 10 is denoted as B)
CCC[C@H]1C(=O)N[C@@H]([C@@H](C)CC)C(=O)N(C)[C@@H](C)C(=O)N2CC[C@H]2C(=O)N(CCC)[C@@H](Cc2ccc(C(F)(F)F)cc2)C(=O)N(C)CC(=O)N[C@@H](CCc2ccc(C(F)(F)F)c(Cl)c2)C(=O)N2CCC[C@H]2C(=O)NC2(CCC2)C(=O)N(C)[C@@H](C2CCCC2)C(=O)N(CC)[C@H](C(=O)N2CCOCC2)CC(=O)N1C [PP1955] ([NMeNva]I[NMeA][Aze][NPrPhe(4-CF3)][Sar][hPhe(3-Cl-4-CF3)]P[Ac4c][NMeGly(cPent)][NEtAsp]-Morpholide; lactam N-11)	C (A compound having a KD ratio of 0.1 or more and less than 3 is denoted as C)	4.4	B (a compound having 3 or more and less than 10 is denoted as B)
CCCN1C(=O)CN(C)C(=O)CN(C)C(=O)[C@H]([C@@H](C)CC)NC(=O)[C@H](CC(C)C)N(C)C(=O)C[C@@H](C(=O)N(C)C)N(CC)C(=O)[C@H](C2CCCC2)N(C)C(=O)C2(CCC2)NC(=O)[C@@H]2CCCN2C(=O)[C@H](CCc2ccc(C(F)(F)F)c(Cl)c2)NC(=O)CN(C)C(=O)[C@@H]1Cc1ccc(C(F)(F)F)cc1 [PP1956] ([NMeL]I[Sar][Sar][NPrPhe(4-CF3)][Sar][hPhe(3-Cl-4-CF3)]P[Ac4c][NMeGly(cPent)][NEtAsp]-NMe2; lactam N-11)	B (a compound having 3 or more and less than 10 is denoted as B)	2.2	B (a compound having 3 or more and less than 10 is denoted as B)
CCCN1C(=O)[C@@H]2CCN2C(=O)[C@H](C)N(C)C(=O)[C@H]([C@@H](C)CC)NC(=O)[C@H](CC(C)C)N(C)C(=O)C[C@@H](C(=O)N(C)C)N(CC)C(=O)[C@H](C2CCCC2)N(C)C(=O)C2(CCC2)NC(=O)[C@@H]2CCCN2C(=O)[C@H](CCc2ccc(C(F)(F)F)c(Cl)c2)NC(=O)CN(C)C(=O)[C@@H]1Cc1ccc(C(F)(F)F)cc1 [PP1957] ([NMeL]I[NMeA][Aze][NPrPhe(4-CF3)][Sar][hPhe(3-Cl-4-CF3)]P[Ac4c][NMeGly(cPent)][NEtAsp]-NMe2; lactam N-11)	C (A compound having a KD ratio of 0.1 or more and less than 3 is denoted as C)	8.6	B (a compound having 3 or more and less than 10 is denoted as B)
